Experimental data reported in patent publication US20080064705A1, “Theophylline-based nitophenylpiperazine derivatives for enhancing aortic smooth muscle relaxation” (KAOHSIUNG MEDICAL UNIVERSITY, priority 2006, published 2008).
“Also recorded” adds a separate entry of the source.

Key:
eNOS in HUVECs = assay: eNOS protein expression in HUVECs (Western blot, densitometry); assay type: cell-based, human; details: 0.1 μM (also 0.1 mM in source), 18 hours
Method: Human umbilical vein endothelial cells (HUVECs, American Type Culture Collection, Rockville, Md.) were cultured in F12 nutrient mixture medium supplemented with 10% FBS, 1.6 mM L-glutamine, […] endothelial cell growth supplement, 100 U/mL penicillin, […], and 10 U/mL heparin. HUVECs of passages 3-5 were used for all experiments.
Endothelial cells were processed, and eNOS protein abundance was determined by Western blot analysis using anti-eNOS antibody (BD Transduction Laboratories, San Diego, Calif.) in a manner that was similar to that described in our previous study.

cAMP levels in RASMCs = assay: Intracellular cAMP levels in RASMCs (radioimmunoassay); assay type: cell-based, rat; details: Table 1; 10 μM of test agent, RASMCs, 20 minutes
Method: (§1) Rat aortic smooth muscles were obtained as sterile surgical specimens. The tissue was washed and cut into 1- to 2-mm pieces and placed into culture dishes with Dulbecco modified Eagle medium (DMEM) containing 20% fetal bovine serum (FBS), 100 U/mL penicillin G, […], and 2 mM glutamine. After these explants attached to the culture dish, usually in 1 to 2 days, DMEM supplemented with 10% FBS, penicillin, streptomycin, and glutamine was added. Rat aortic smooth muscle cells (RASMCs) migrated from the explants in 3-5 days. At this time, the explants were removed, and cells were allowed to achieve confluence. Cells were detached using 0.05% trypsin and 0.02% EDTA at 37° C. for 5 minutes to establish secondary cultures. Cultures were maintained for no more than 4 passages. To exclude contamination by endothelial cells and fibroblasts, the cell homogeneity was further confirmed by the presence of smooth muscle-specific α-actin and α-myosin. Indirect immunofluorescence staining for a variety of antigens was carried out by first plating the cells on chamber slides, fixing the cells in 3.7% formaldehyde in phosphate-buffered saline for 10 minutes, and then permeabilizing the cells with phosphate-buffered saline plus 0.1% Triton X-100. Cells were stained with a mouse monoclonal antibody directed against the amino-terminal 10 amino acids of a-smooth muscle actin and α-myosin (Boehringer Mannheim, Indianapolis, Ind.). All were stained with fluoresceinlabeled goat anti-mouse IgG antibody.
(§2) Intracellular cGMP and cAMP levels in RASMCs were described previously (Wu B N, Lin R J, Lin C Y, et al., Br J Pharmacol., 134, 265-274, 2001). In brief, cells were grown in 24-well plates (10^5 cells/well). At confluence, monolayer cells are washed with phosphate buffer solution (PBS) and then incubated with KMUP-3, KMUP-4, or other PDE inhibitors (10 or 100 μM) for 20 minutes. Incubation is terminated by the addition of 10% trichloroacetic acid (TCA). Cell suspensions are sonicated and then centrifuged at 2500 g for 15 minutes at 4° C. To remove TCA, the supernatants are extracted 3 times with 5 volumes of water-saturated diethyl ether. Then, the supernatants are lyophilized, and cGMP or cAMP of each sample is determined by using commercially available radioimmunoassay kits (Amersham Pharmacia Biotech, Buckinghamshire, England).

rat aortic rings = assay: Relaxation of precontracted isolated rat aortic rings (isometric tension, organ bath); details: Rattus norvegicus; endothelium-intact aorta, precontracted with PE 10 μM, cumulative 1 nM-100 μM; read-out: pEC50 of vasorelaxation (converted)
Method: The aortic rings were prepared as follows. 24 Rats (200-300 g) were killed under mild anesthesia with ether, and their aortas were quickly excised.
Isometric tension was recorded with a force displacement transducer (Grass, Model FT03, Quincy, Mass.). The endothelium layer was removed mechanically by inserting the tip of a pair of forceps into the lumen and rolling the tissue back and forth several times on a paper towel moistened with physiological salt solution. At the beginning of each experiment, aortic rings were stretched to a resting tension of 1.5 g and then contracted with phenylephrine (PE, […]), and once the contractions had reached a plateau, the endothelial integrity of the preparations (abbreviated as endothelium-intact in the following) or absence of endothelium (abbreviated as E^− in the following) was verified by adding ACh ([…]) to the superfusate. […] The preparations were then washed and allowed to equilibrate with Krebs solution for 45 minutes before being contracted a second time with PE. When the stable vasoconstriction to PE (10 μM) was reached, concentration-response curves to KMUP-3 and KMUP-4 (1 nM-100 μM) were constructed. Additionally, aortic rings were preconstricted with 80 mM KCl. When the contraction reached a steady state, cumulative concentration-response curves to KMUP-3 and KMUP-4 (1 nM-100 μM) were determined. In this experiment, the high-K^+ solution was prepared by replacing NaCl with KCl (80 mM) in an equimolar amount.

cGMP levels in RASMCs = assay: Intracellular cGMP levels in RASMCs (radioimmunoassay); assay type: cell-based, rat; details: Table 1; 100 μM of test agent, RASMCs, 20 minutes
Method: as §1, §2

PDE4 = PDE4 enzyme inhibitory activity (method of Hidaka and Asano); assay type: biochemical, human; parameters: dose or concentration left out as unconfirmed; details: n=3
Method: PDE activities were determined by the method of Hidaka and Asano (Hidaka H, Asano T., Biochim Biophys Acta., 429, 485-497, 1976). Washed human platelets were used for both PDE3 and PDE5 analyses, and human U937 cells for PDE4. Purified protein containing PDE3, PDE4, or PDE5 enzyme was resuspended in 50 mM Tris-HCl containing 5 mM MgCl2 (pH 7.5). […] After 20 minutes at 37° C., the samples were heated to 100° C. for 2 minutes. Ophiophagis Hannah snake venom (10 mg/mL, […]) was then added and incubated at 37° C. for 10 minutes to convert the 5′-GMP and 5′-AMP to the uncharged nucleosides guanosine and adenosine, respectively. An ion-exchange resin ([…]) was added to bind all unconverted cGMP or cAMP. After centrifuging, the supernatant was removed for determination of radiolabeled guanosine or adenosine by a liquid scintillation counter.

Structure (SMILES) | expression of eNOS protein (eNOS in HUVECs) | cAMP (pmol/10^5 Cells) (cAMP levels in RASMCs) | EC50 (rat aortic rings) [nM] | cGMP (fmol/10^5 cells) (cGMP levels in RASMCs) [fmol/10^5 Cells] | enzyme inhibitory activity for PDE4 (PDE4) [%]
OCc1ccc(-c2nn(Cc3ccccc3)c3ccccc23)o1 [YC-1, reference compound] | less potent than KMUP-3 or KMUP-4; also recorded: significantly increased |  |  |  | 
Cc1[nH]c(=O)c(C#N)cc1-c1ccncc1 [milrinone, reference compound] |  | 16.24 ± 1.23 | 457 | 30.96 ± 2.96 | 
COc1ccc(C2CNC(=O)C2)cc1OC1CCCC1 (stereo not drawn) [rolipram, reference compound] |  | 18.53 ± 1.10 | 407 | 31.35 ± 2.51 | 
Cn1c(=O)c2[nH]cnc2n(C)c1=O [theophylline] |  |  | 3550 |  | 8±1.2
CCCOc1ccccc1-c1nc2nn[nH]c2c(=O)[nH]1 [zaprinast, reference compound] |  | 6.50 ± 0.45 | 112 | 50.82 ± 3.89 | 
